From patent EP4685482A1, “METHOD FOR SELECTING DRUGS FOR THE TREATMENT OF MENTAL HEALTH PATHOLOGIES” (Neomente Corp, priority 2023, dated 2024)

Tested on: Patients diagnosed with unipolar depression
Assay: Clinical follow-up of patients with the SIGH-D-17 scale (treatment as usual vs guided by the Clinical Decision Support System), case examples
Type: in vivo
Conditions: for response to treatment regimen (patient history): Example 1: regimen of escitalopram, sertraline, risperidone, clonazepam and lamotrigine
Experimental: Patients diagnosed with unipolar depression were recruited and divided into two groups. The first group Treatment as Usual (TAU) received treatment according to psychiatry clinical guidelines. The second group received Clinical Decision Support System Guided (CCDSg) additional support from the method for selecting neuropsychiatric drugs. Follow-up was conducted using the SIGH-D-17 scale in both groups at the beginning of treatment and 8 and 12 weeks. […]
Based on the algorithm results, it was decided to discontinue the previous pharmacological regimen and initiate a new one consisting of desvenlafaxine and aripiprazole. A significant response was observed within 8 weeks of treatment initiation (69% reduction in SIGH-D-17 scale).
While awaiting the results of the application of this method, pharmacological treatment with sertraline was initiated. […] These findings are consistent with the genetic variations found (alteration of the CYP2C19 enzyme). Subsequently, and with the results of the application of this method, pharmacological treatment with vortioxetine was implemented, achieving remission at 12 weeks.
(53% reduction in SIGH-D-17 scale).

[1] = Example 3: person, treatment-resistant unipolar depression
[2] = Example 4: person, depressive episode
[3] = Example 1: person, severe unipolar depression, new regimen consisting of desvenlafaxine and aripiprazole, within 8 weeks of treatment initiation

Row | Structure (SMILES) | response (pharmacological history) [1] | response to treatment regimen (patient history) | further results
1 | O=c1ccc2ccc(OCCCCN3CCN(c4cccc5sccc45)CC3)cc2[nH]1 [Brexpiprazole] | – | – | reduction in SIGH-D-17 scale (Example 3: person, treatment-resistant unipolar depression, quetiapine gradually replaced by brexpiprazole, at 8 weeks of treatment): 53%
2 | Cc1ccc(Sc2ccccc2N2CCNCC2)c(C)c1 [Vortioxetine] | no response | – | reduction in SIGH-D-17 scale (Example 2: person, mild unipolar depression, vortioxetine, remission at 12 weeks): 67%
3 | CN(C)C(=O)N[C@H]1CC[C@H](CCN2CCN(c3cccc(Cl)c3Cl)CC2)CC1 [Cariprazine] | no response | – | –
4 | COc1ccc(C(CN(C)C)C2(O)CCCCC2)cc1 (stereo not shown) [Venlafaxine] | – | – | response (pharmacological history) [2]: ineffective
5 | CN(C)CCC[C@@]1(c2ccc(F)cc2)OCc2cc(C#N)ccc21 [Escitalopram] | no response | subtherapeutic response | –
6 | Nc1nnc(-c2cccc(Cl)c2Cl)c(N)n1 [lamotrigine] | – | subtherapeutic response | response (pharmacological history) [2]: ineffective
7 | CN(C)CCCN1c2ccccc2CCc2ccc(Cl)cc21 [Clomipramine] | no response | – | –
8 | CN(C)CC(c1ccc(O)cc1)C1(O)CCCCC1 (stereo not shown) [Desvenlafaxine] | no response | – | reduction in SIGH-D-17 scale [3]: 69%
9 | O=C1CCc2ccc(OCCCCN3CCN(c4cccc(Cl)c4Cl)CC3)cc2N1 [Aripiprazole] | – | – | reduction in SIGH-D-17 scale [3]: 69%
10 | O=C1CN=C(c2ccccc2Cl)c2cc([N+](=O)[O-])ccc2N1 [clonazepam] | – | subtherapeutic response | response (pharmacological history) [2]: poor response
11 | Cc1nc2n(c(=O)c1CCN1CCC(c3noc4cc(F)ccc34)CC1)CCCC2 [Risperidone] | – | subtherapeutic response | –
12 | N#Cc1ccc2[nH]cc(CCCCN3CCN(c4ccc5oc(C(N)=O)cc5c4)CC3)c2c1 [Vilazodone] | no response | – | –
13 | CN[C@H]1CC[C@@H](c2ccc(Cl)c(Cl)c2)c2ccccc21 [Sertraline] | – | subtherapeutic response | side effects (Example 2: CYP2C19 intermediate metabolizer, treatment had to be discontinued): side effects at low doses
